For 19 compounds, ring closure, isolated yield, EC50 and Emax results are on record in patent publication US20240343740A1, “MACROCYCLIC GLUCAGON-LIKE PEPTIDE 1 RECEPTOR AGONISTS” (Eli Lilly and Company, priority 2021, published 2024).

Usually EC50 stands for the concentration needed to bring the measured effect to its halfway point. The Emax is the size of the effect at its maximum, as opposed to the concentration needed.

Where two headings read alike, the source gives them in different places.

For data set [1] the following is noted: cc_pd bond.
Data set [2] has as its target T1, human GLP-1R (Homo sapiens, UniProt P43220). The data set is described as follows: Human GLP-1 Receptor HEK293 cell cAMP assay, 104 fmol/mg GLP-1R expression density. Details: expressed in transfected cells; host or cells: HEK293 clonal cell line. The format is cell-based. To be noted: HEK293 cell line with 104 fmol/mg expression density of GLP-1R; for EC50: geometric mean, read-out: EC50 nM (SEM, n), intracellular cAMP response, relative EC50; for Emax: percent of maximal response to GLP-1(7-36)NH2, arithmetic mean, read-out: Emax % (SEM, n), intracellular cAMP response. The method in brief:
(§1)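 HEK293 clonal lines expressing human GLP-1R, 20-point compound curves, 30 min at 37° C in DMEM with 0.1% casein, 250 μM IBMX, 0.5% DMSO. cAMP by HTRF, converted via standard curve to % of maximal human GLP-1(7-36)NH2 response; relative EC50 and Emax from four-parameter logistic fit.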
(Changes in cAMP serve as a functional read-out for many G protein-coupled receptors.)

Data set [3] has as its target T1, human GLP-1R. The data set is described as follows: Human GLP-1 Receptor HEK293 cell cAMP assay, 581 fmol/mg GLP-1R expression density. The format is cell-based. More on the design: expressed in transfected cells; host or cells: HEK293 clonal cell line. To be noted: HEK293 cell line with 581 fmol/mg expression density of GLP-1R; for EC50: geometric mean, read-out: EC50 nM (SEM, n), intracellular cAMP response, relative EC50; for Emax: percent of maximal response to GLP-1(7-36)NH2, arithmetic mean, read-out: Emax % (SEM, n), intracellular cAMP response. The method in brief: as §1

T1 sequence (P43220 24-463): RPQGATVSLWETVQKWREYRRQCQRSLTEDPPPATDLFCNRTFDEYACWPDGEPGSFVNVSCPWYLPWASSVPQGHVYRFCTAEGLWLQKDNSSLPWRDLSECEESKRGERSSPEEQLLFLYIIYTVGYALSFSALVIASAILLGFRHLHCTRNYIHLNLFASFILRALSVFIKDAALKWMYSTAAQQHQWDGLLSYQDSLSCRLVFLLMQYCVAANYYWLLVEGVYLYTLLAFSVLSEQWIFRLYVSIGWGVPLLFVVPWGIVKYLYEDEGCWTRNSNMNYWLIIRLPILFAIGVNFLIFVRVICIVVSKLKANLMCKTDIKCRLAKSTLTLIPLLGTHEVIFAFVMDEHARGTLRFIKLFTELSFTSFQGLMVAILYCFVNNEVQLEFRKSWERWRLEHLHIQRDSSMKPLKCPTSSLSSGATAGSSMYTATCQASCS

In turn, `CCOC(=O)Cc1cc(F)c2cc1CCOCc1cc(ccc1Cl)COc1cccc-2n1` gave a ring closure, isolated yield in data set [1] (from CCOC(=O)Cc1cc(F)c(B2OC(C)(C)C(C)(C)O2)cc1CCOCc1cc(COc2cccc(Cl)n2)ccc1Cl, 15-membered ring, XPhos Pd G2/K3PO4, THF/water, 27.0 mM, 60.0 °C, 1.5 h) of 20%.

`COC(=O)Cc1ccc2cc1OCCCc1cc(Cl)ccc1COc1cccc-2n1` showed a ring closure, isolated yield in data set [1] (from COC(=O)Cc1ccc(B2OC(C)(C)C(C)(C)O2)cc1OCCCc1cc(Cl)ccc1COc1cccc(Br)n1, 14-membered ring, XPhos Pd G2/K3PO4, THF/water, 9.2 mM, 40.0 °C, 15.0 h) of 74%.

As to `CCOC(=O)Cc1cc(F)c2cc1OCCCc1cc(C#N)cnc1COc1cccc-2n1`, in data set [1] (from CCOC(=O)Cc1cc(F)c(Br)cc1OCCCc1cc(C#N)cnc1COc1cccc(Br)n1, 14-membered ring, Me6Sn2/CsF/XPhos Pd G2, 1,4-dioxane, 22.0 mM, 100.0 °C, 18.0 h), the ring closure, isolated yield was determined as 49%.

Turning to `CCOC(=O)Cc1cc(F)c2cc1OCCCc1cc(C#N)ccc1COc1cccc-2n1`, in data set [1] (from CCOC(=O)Cc1cc(F)c(Br)cc1OCCCc1cc(C#N)ccc1COc1cccc(Br)n1, 14-membered ring, Me6Sn2/Pd(PPh3)4, 1,4-dioxane, 23.0 mM, 90.0 °C, 60.0 h), the ring closure, isolated yield came to 47%.

Regarding `COC(=O)Cc1ccc2cc1OCCCc1cc(C#N)ccc1COc1cccc-2n1`, in data set [1] (from COC(=O)Cc1ccc(B2OC(C)(C)C(C)(C)O2)cc1OCCCc1cc(C#N)ccc1COc1cccc(Br)n1, 14-membered ring, XPhos Pd G2/K3PO4, THF/water, 57.0 mM, 45.0 °C, 2.25 h), the ring closure, isolated yield was 82%.

Take `COC(=O)Cc1ccc2cc1COCCc1cc(ccc1C#N)COc1cccc-2n1`: in data set [1] (from COC(=O)Cc1ccc(B2OC(C)(C)C(C)(C)O2)cc1COCCc1cc(COc2cccc(Cl)n2)ccc1C#N, 15-membered ring, XPhos Pd(crotyl)Cl/K3PO4, THF/water, 33.0 mM, 50.0 °C, 0.83 h), the ring closure, isolated yield amounted to 61%.

Consider `O=C(O)c1cc(OCCO)c2nc(Cc3ccc4cc3COCCc3cc(Cl)ccc3COc3cccc-4n3)n(C[C@@H]3CCO3)c2c1` [Example 55, (S)-4-[2-Hydroxyethoxy]-2-((5^4-chloro-3,8-dioxa-2(2,6)-pyridina-1(1,3),5(1,2)-dibenzenacyclononaphane-1^4-yl)methyl)-1-(oxetan-2-ylmethyl)-1H-benzo[d]imidazole-6-carboxylic acid], for which, on human GLP-1R [2], the EC50 was found to be 22.8 nM and the Emax is 84.8%. At human GLP-1R [3], the EC50 worked out at 8.94 nM and the Emax came to 113%.

With `COCCOc1cc(C(=O)O)cc2c1nc(Cc1ccc3cc1OCCCc1cc(C#N)ccc1COc1cccc-3n1)n2C[C@@H]1CCO1` [Example 24, (S)-2-((5^4-Cyano-3,9-dioxa-2(2,6)-pyridina-1(1,3),5(1,2)-dibenzenacyclononaphane-1^4-yl)methyl)-4-(2-methoxyethoxy)-1-(oxetan-2-ylmethyl)-1H-benzo[d]imidazole-6-carboxylic acid], on human GLP-1R [2], the EC50 was found to be 6.6 nM and the maximal response (Emax) came to 89.6%. Also, at human GLP-1R [3], the EC50 was 2.34 nM and the Emax was found to be 116%.

As to `COCCOc1cc(C(=O)O)cc2c1nc(Cc1ccc3cc1COCC(F)(F)c1cc(C#N)ccc1COc1cccc-3n1)n2C[C@@H]1CCO1` [Example 50, (S)-2-((5^4-cyano-6,6-difluoro-3.8-dioxa-2(2,6)-pyridina-1(1,3),5(1,2)-dibenzenacyclonaphane-1^4-yl)methyl)-4-(2-methoxyethoxy)-1-(oxatan-2-ylmethyl)-1H-benzo[d]imidazole-6-carboxylic acid], at human GLP-1R [2], the EC50 turned out to be 128 nM and the Emax stood at 82.8%. Besides, at human GLP-1R [3], the EC50 is 38.1 nM and the Emax worked out at 115%.

As to `O=C(O)c1ccc2nc(Cc3ccc4cc3OCCCc3cc(-n5ccc(=O)cc5)ccc3COc3cccc-4n3)n(C[C@@H]3CCO3)c2c1` [Example 74, (S)-1-(Oxetan-2-ylmethyl)-2-((5^4-(4-oxopyridin-1(4H)-yl)-3,9-dioxa-2(2,6)-pyridina-1(1,3),5(1,2)-dibenzenacyclononaphane-1^4-yl)methyl)-1H-benzo[d]imidazole-6-carboxylic acid], on human GLP-1R [2], the EC50 was 533 nM and the Emax came to 73.3%. Moreover, at human GLP-1R [3], the concentration for a half-maximal effect (EC50) was 155 nM and the Emax came out at 92.1%.

Regarding `N#Cc1ccc2c(c1)COCc1cc(c(F)cc1Cc1nc3ccc(C(=O)O)cc3n1C[C@@H]1CCO1)-c1cccc(n1)OC2` [Example 14, (S)-2-((5^4-Cyano-1^6-fluoro-3,7-dioxa-2(2,6)-pyridina-1(1,3),5(1,2)-dibenzenacyclooctaphane-1^4-yl)methyl)-1-(oxetan-2-ylmethyl)-1H-benzo[d]imidazole-6-carboxylic acid], at human GLP-1R [2], the EC50 worked out at 228 nM and the Emax came to 82.5%. On human GLP-1R [3], the EC50 was 72.3 nM and the Emax stood at 109%.

As to `O=C(O)c1ccc2nc(Cc3ccc4cc3OCCCc3cc(Br)ccc3COc3cccc-4n3)n(C[C@@H]3CCO3)c2c1` [Example 18, (S)-2-((5^4-Bromo-3,9-dioxa-2(2,6)-pyridina-1(1,3),5(1,2)-dibenzenacyclononaphane-1^4-yl)methyl)-1-(oxetan-2-ylmethyl)-1H-benzo[d]imidazole-6-carboxylic acid], on human GLP-1R [2], the EC50 came out at 169 nM and the maximal response (Emax) amounted to 94.9%. Besides, on human GLP-1R [3], the EC50 was 50.3 nM and the Emax was found to be 115%.

For the compound `O=C(O)c1ccc2nc(Cc3ccc4cc3OCCCc3cc(-c5cn[nH]c5)ccc3COc3cccc-4n3)n(C[C@@H]3CCO3)c2c1` [Example 30, (S)-2-((5^4-(1H-Pyrazol-4-yl)-3,9-dioxa-2(2,6)-pyridina-1(1,3),5(1,2)-dibenzenacyclononaphane-1^4-yl)methyl)-1-(oxetan-2-ylmethyl)-1H-benzo[d]imidazole-6-carboxylic acid], the values for the EC50 on human GLP-1R [2] and at human GLP-1R [3] were 118 nM and 35.6 nM, respectively. For the same compound, the Emax on human GLP-1R [2] was found to be 77.1%; on human GLP-1R [3], 98.1%.

Turning to `COc1cc(C(=O)NS(=O)(=O)CC2CC2)cc2c1nc(Cc1cc(C)c3cc1OCCCc1cc(F)ccc1COc1cccc-3n1)n2C[C@@H]1CCO1` [Example 69, (S)—N-((Cyclopropylmethyl)sulfonyl)-2-((5^4-fluoro-1^6-methyl-3,9-dioxa-2(2,6)-pyridina-1(1,3),5(1,2)-dibenzenacyclononaphane-1^4-yl)methyl)-4-methoxy-1-(oxetan-2-ylmethyl)-1H-benzo[d]imidazole-6-carboxamide], on human GLP-1R [2], the EC50 came to 103 nM and the Emax was determined as 26.6%. Moreover, at human GLP-1R [3], the EC50 was 59.8 nM and the Emax came out at 71.6%.

Take `COc1cc(-c2ccc3c(c2)CCCOc2cc(ccc2Cc2nc4ccc(C(=O)O)cc4n2C[C@@H]2CCO2)-c2cccc(n2)OC3)ccn1` [Example 34, (S)-2-((5^4-(2-Methoxypyridin-4-yl)-3,9-dioxa-2(2,6)-pyridina-1(1,3),5(1,2)-dibenzenacyclononaphane-1^4-yl)methyl)-1-(oxetan-2-ylmethyl)-1H-benzo[d]imidazole-6-carboxylic acid]: at human GLP-1R [2], the EC50 was determined as 616 nM and the Emax turned out to be 82.3%. Moreover, at human GLP-1R [3], the EC50 was found to be 167 nM and the Emax came out at 110%.

For `CN1CCC(Oc2cc(C(=O)O)cc3c2nc(Cc2ccc4cc2OCCCc2cc(C#N)ccc2COc2cccc-4n2)n3C[C@@H]2CCO2)C1` (stereo partly drawn) [Example 59, 2-((5^4-Cyano-3,9-dioxa-2(2,6)-pyridina-1(1,3),5(1,2)-dibenzenacyclononaphane-1^4-yl)methyl)-4-((1-methylpyrrolidin-3-yl)oxy)-1-(((S)-oxetan-2-yl)methyl)-1H-benzo[d]imidazole-6-carboxylic acid], at human GLP-1R [2], the EC50 came out at 515 nM and the Emax is 48.4%. Moreover, at human GLP-1R [3], the EC50 is 262 nM and the Emax is 90.9%.

With `COCCOc1cc(C(=O)O)cc2c1nc(Cc1cc(F)c3cc1CCOCc1cc(ccc1C#N)COc1cccc-3n1)n2C[C@@H]1CCO1` [Example 48, (S)-2-((5^4-Cyano-1^6-fluoro-3,7-dioxa-2(2,6)-pyridina-1,5(1,3)-dibenzenacyclononaphane-1^4-yl)methyl)-4-(2-methoxyethoxy)-1-(oxetan-2-ylmethyl)-1H-benzo[d]imidazole-6-carboxylic acid], the EC50 at human GLP-1R [2] came to 31.5 nM; at human GLP-1R [3], 11.2 nM. Besides, the Emax on human GLP-1R [2] worked out at 86.8%; at human GLP-1R [3], 108%.

Regarding `COCCOc1cc(C(=O)O)cc2c1nc(Cc1cc(F)c3cc1COCc1cc(Cl)ccc1COc1cccc-3n1)n2C[C@@H]1CCO1` [Example 67, (S)-2-((5^4-Chloro-1^6-fluoro-3,7-dioxa-2(2,6)-pyridina-1(1,3),5(1,2)-dibenzenacyclooctaphane-1^4-yl)methyl)-4-(2-methoxyethoxy)-1-(oxetan-2-ylmethyl)-1H-benzo[d]imidazole-6-carboxylic acid], the results for the EC50 on human GLP-1R [2] and at human GLP-1R [3] were 6.88 nM and 2.13 nM, respectively. The maximal effect (Emax) is 91.6% on human GLP-1R [2] and 117% on human GLP-1R [3].

Regarding `COc1cc(C(=O)O)cc2c1nc(Cc1cc(C)c3cc1OCCCc1cc(C#N)ccc1COc1cccc-3n1)n2C[C@@H]1CCO1` [Example 9, (S)-2-((5^4-Cyano-16-methyl-3,9-dioxa-2(2,6)-pyridina-1(1,3),5(1,2)-dibenzenacyclononaphane-1^4-yl)methyl)-4-methoxy-1-(oxetan-2-ylmethyl)-1H-benzo[d]imidazole-6-carboxylic acid], on human GLP-1R [2], the EC50 came to 5.44 nM and the Emax worked out at 83.1%. Further, at human GLP-1R [3], the EC50 worked out at 1.8 nM and the Emax amounted to 118%.
